From patent US20250127719A1, “ANISAMIDE-CONTAINING LIPIDS AND COMPOSITIONS AND METHODS OF USE THEREOF” (The Trustees Of The University Of Pennsylvania, priority 2021, published 2025)

Tests used:
[1] = tested on: activated 3T3-GFP fibroblasts; test: High-throughput screening of LNPs: GFP knockdown, plate reader; format: cell-based, murine; settings: 50 nM siGFP, 48 h post-treatment
Method: High-throughput screening of LNPs was performed by evaluating GFP knockdown efficiency in 96-well plates using a plate reader assay. 3T3-GFP cells were re-suspended in DMEM containing 10 ng/ml of TGF-β, and seeded into a 96-well plate at a density of 5,000 cells per well. After 24 h, activated cells were treated with various LNPs loaded with siGFP (50 nM). At 48 h post-treatment, the GFP signal in each well was obtained using an Infinite M Plex plate reader (Tecan, Morrisville, NC, USA) with an excitation of 488 nm and an emission of 520 nm. Cell viability was measured using a CellTiter-Glo Luminescent Cell Viability Assay according to the manufacturer's instruction (G7572, Promega).

[2] = tested on: activated 3T3-GFP fibroblasts; test: Second-round screening: dependency on sigma receptor-mediated transfection (haloperidol pre-treatment); format: cell-based, murine; settings: 30 μM haloperidol 2 h, then 50 nM siGFP LNP 48 h
Method: The top-performing LNPs were subjected to a second round of screening by evaluating their dependency on sigma receptor-mediated transfection. Activated 3T3-GFP cells were treated with or without haloperidol (30 μM) for 2 h before various LNPs loaded with siGFP (50 nM) were used to treat these cells for another 48 h. The GFP signal in each well was obtained as described above.

[3] = Gel retardation assay (agarose gel electrophoresis); format: physicochemical; settings: weight ratio of AA-T3A-C12:siRNA above 5:1; 500 ng siRNA per lane
Method: FIGS. 11A-11B depict optimization of the weight ratio of AA-T3A-C12 to siRNA. FIG. 11A: gel retardation assay. LNPs with different weight ratios of AA-T3A-C12:siRNA were analyzed by 1% agarose gel electrophoresis. 500 ng siRNA was loaded into each lane. […] FIG. 11B: RiboGreen RNA assay. The siRNA encapsulation efficiency reached a plateau of ˜90% when the weight ratio of AA-T3A-C12:siRNA was 10:1. Data are presented as mean±SD (n=3).
(§1) The hydrodynamic diameter, polydispersity index (PDI), and zeta potential of LNPs were measured using a Zetasizer Nano ZS90 (Malvern Instruments, Malvern, UK). The morphology of LNPs was characterized by transmission electron microscopy (JEOL 1010, Tokyo, Japan). The siRNA-LNP complex was analyzed by agarose gel electrophoresis. siRNA encapsulation efficiency was determined using a modified Quant-iT RiboGreen RNA assay (Invitrogen) as previously described. The pKa of LNP was determined by 6-(p-toluidinyl)naphthalene-2-sulfonic acid (TNS) assay as previously described.

[4] = siRNA encapsulation efficiency, RiboGreen RNA assay; format: physicochemical; settings: weight ratio of AA-T3A-C12:siRNA 10:1
Method: as §1

| free siRNA in gel retardation assay [3] | siRNA encapsulation efficiency plateau [4] | SMILES | GFP knockdown [1] | change of GFP silencing activity after haloperidol (HP) treatment [2] |
| --- | --- | --- | --- | --- |
| – | – | CCCCCCCCCCC(O)CN(CCN(CCNC(=O)c1ccc(OC)cc1)CCN(CC(O)CCCCCCCCCC)CC(O)CCCCCCCCCC)CC(O)CCCCCCCCCC (stereo not shown) [AA-110-C12] | ~70% | – |
| Little to no free siRNA was observed | ~90% | CCCCCCCCCCC(O)CN(CCCN(CCCNC(=O)c1ccc(OC)cc1)CCCN(CC(O)CCCCCCCCCC)CC(O)CCCCCCCCCC)CC(O)CCCCCCCCCC (stereo not shown) [AA-T3A-C12, N-(3-(bis(3-(bis(2-hydroxydodecyl)amino)propyl)amino)propyl)-4-methoxybenzamide] | – | the most significant loss of activity |
